pIC50: −log10 of the molar value.

Assay [1] deals with T1, met (HGF receptor) in human gastric cancer cells MKN45 (Homo sapiens, UniProt P08581).
T1 construct: endogenous in cells; host or cells: MKN45 human gastric cancer cells
In words: Inhibitory activity against met-autophosphorylation using ELISA method (2), MKN45 cells, HGF-independent. It is filed as cell-based. The procedure, abridged:
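MKN45 cells, 3×10^4 per well in RPMI with 0.1% FCS overnight, were exposed to compound in DMSO for 1 h at 37 °C without HGF. Lysates were captured on anti-phosphotyrosine (PY20) plates, Met detected with anti-Met and peroxidase secondary antibody, absorbance at 450 nm.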
Background: An ELISA detects its analyte on a solid surface through an enzyme-linked reagent.

The test system of assay [2] is human pancreatic cancer cells (KP4). In words: Tumor growth inhibitory activity against various human tumor cells in nude mice: KP4. Conditions: KP-4, Oral, 5 days. It is filed as in vivo. As for the experimental part:
(§1) Human gastric cancer cells (MKN 45) (obtained from RIKEN), human brain tumor cells (U87MG) (obtained from ATCC), human pancreatic cancer cells (KP4) (obtained from RIKEN), human pancreatic cancer cells (SUIT-2) (obtained from National Kyushu Cancer Center), and human signet-ring type gastric cancer cells (NUGC-4) (obtained from RIKEN), or human lung cancer cells (LC6) (obtained from Central Laboratories for Experimental Animals) were transplanted into nude mice. […] The test compound suspended in 0.5% methylcellulose was orally administered once or twice a day for 5 days. Only 0.5% methylcellulose was administered to the control group in the manner as in the test groups. Alternatively, the test compound dissolved in physiological saline (with a 1 N aqueous hydrochloric acid solution added thereto) was intraveneously injected once a day for 5 days, and only physiological saline (with a 1 N aqueous hydrochloric acid solution added thereto) was administered to the control group in the same manner as in the test groups. The tumor growth inhibition rate (TGIR) was calculated as follows: The tumor growth inhibition rate (TGIR)=(1−TX/CX)×100 wherein CX represents the relative tumor volume at the 5th day for the control group when the tumor volume at the day of the start of the administration was presumed to be 1; and TX represents the relative tumor volume for test compound administration groups.

The subject of assay [3] is human pancreatic cancer cells (SUIT-2). Description: Tumor growth inhibitory activity against various human tumor cells in nude mice: SUIT-2. It is filed as in vivo. Conditions: SUIT-2, Oral, 25 × 1 mg/kg × number of times, 5 days. As for the experimental part:
as §1, with “Alternatively, the test compound dissolved in physiological saline (with a 1 N aqueous hydrochloric acid solution added thereto) was intraveneously injected once a day for 5 days, and only physiological saline (with a 1 N aqueous hydrochloric acid solution added thereto) was administered to the control group in the same manner as in the test groups.” left out

In assay [4] the target is T2, met (HGF receptor) in human epidermal cancer cells A431 (Homo sapiens, UniProt P08581).
T2 construct: endogenous in cells; host or cells: A431 human epidermal cancer cells
Description: Inhibitory activity against met-autophosphorylation using ELISA method (1), HGF-stimulated A431 cells. It is filed as cell-based. The note with it: HGF 50 ng/ml stimulation, read-out: IC50 (concentration necessary for inhibiting 50% of met phosphorylation). As for the experimental part: Human epidermal cancer cells A431 were cultured in an RPMI 1640 medium containing 10% fetal calf serum (purchased from GIBCO BRL) within a 5% carbon dioxide incubator until 50 to 90% confluent. Cells were cultured with RPMI medium containing 0.1% fetal calf serum in 96-well flat-bottom plate in an amount of 3×10^4 per well, and were incubated at 37° C. overnight. The medium was then replaced by a fresh RPMI medium containing 0.1% fetal calf serum. A solution of the test compound in dimethyl sulfoxide was added to each well, and the cells were incubated at 37° C. for additional one hr. A human recombinant hepatocyte growth factor (hereinafter abbreviated to “HGF”) was added to a final concentration of 50 ng/ml, and the stimulation of cells was carried out at 37° C. for 5 min. The medium was removed, the cells were washed with phosphate buffered saline (pH 7.4), and 50 μl of lysis buffer (20 mM HEPES (pH 7.4), 150 mM NaCl, 0.2% Triton X-100, 10% glycerol, 5 mM sodium orthovanadylate, 5 mM disodium ethylenediaminetetraacetate, and 2 mM Na4P2O7) was then added thereto. […]
Separately, phosphate buffered saline (50 μl, pH 7.4) containing 5 μg/ml of anti-phospho-tyrosine antibody (PY20; purchased from Transduction Laboratories) was added to a microplate for ELISA (Maxisorp; purchased from NUNC), followed by gentle agitation at 4° C. overnight to coat the surface of the wells with the antibody. […] After washing, the whole quantity of the cell extract was transferred to the wells, and the plate was then allowed to incubate at 4° C. overnight. […] After a suitable level of color development, a reaction termination solution was added to stop the reaction, and the absorbance at 450 nm was measured with a microplate reader. The met-phosphorylation inhibitory activity for each well was determined by presuming the absorbance with the addition of HGF and the vehicle to compounds to be 0% met-phosphorylation inhibitory activity and the absorbance with the addition of the vehicle to compounds and without HGF to be 100% met phosphorylation inhibitory activity. […]

Assay [5] concerns Human gastric cancer cells (MKN 45). In words: Tumor growth inhibitory activity against human gastric cancer cells (MKN 45) in nude mice. Format: in vivo. The note with it: oral, twice a day for 5 days. How it is done:
Human gastric cancer cells (MKN 45) were transplanted into nude mice. […] The test compound suspended in 0.5% methylcellulose was orally administered twice a day for 5 days.
(§2) Only 0.5% methylcellulose was administered to the control group in the manner as in the test groups. The tumor growth inhibition rate (TGIR) was calculated as follows: The tumor growth inhibition rate (TGIR)=(1−TX/CX)×100 wherein CX represents the relative tumor volume at day X for the control group when the tumor volume at the day of the start of the administration was presumed to be 1; and TX represents the relative tumor volume for test compound administration groups.

Assay [6] has as its system Human brain tumor cells (U87MG). Description: Tumor growth inhibitory activity against human brain tumor cells (U87MG) in nude mice. Format: in vivo. The note with it: oral, twice a day for 5 days. How it is done: Human brain tumor cells (U87MG) were transplanted into nude mice. […] The test compound suspended in 0.5% methylcellulose was orally administered twice a day for 5 days.
as §2

The subject of assay [7] is human signet-ring type gastric cancer cells (NUGC-4). Description: Tumor growth inhibitory activity against various human tumor cells in nude mice: NUGC-4. The note with it: NUGC-4, Oral, 30 × 2 mg/kg × number of times, 5 days. It is filed as in vivo. How it is done: as §1, with “Alternatively, the test compound dissolved in physiological saline (with a 1 N aqueous hydrochloric acid solution added thereto) was intraveneously injected once a day for 5 days, and only physiological saline (with a 1 N aqueous hydrochloric acid solution added thereto) was administered to the control group in the same manner as in the test groups.” left out

The test system of assay [8] is human lung cancer cells (LC6). Description: Tumor growth inhibitory activity against various human tumor cells in nude mice: LC6. It is filed as in vivo. Conditions: LC6, Oral, 30 × 2 mg/kg × number of times, 5 days. As for the experimental part: as §1

T1 sequence (P08581 25-1390): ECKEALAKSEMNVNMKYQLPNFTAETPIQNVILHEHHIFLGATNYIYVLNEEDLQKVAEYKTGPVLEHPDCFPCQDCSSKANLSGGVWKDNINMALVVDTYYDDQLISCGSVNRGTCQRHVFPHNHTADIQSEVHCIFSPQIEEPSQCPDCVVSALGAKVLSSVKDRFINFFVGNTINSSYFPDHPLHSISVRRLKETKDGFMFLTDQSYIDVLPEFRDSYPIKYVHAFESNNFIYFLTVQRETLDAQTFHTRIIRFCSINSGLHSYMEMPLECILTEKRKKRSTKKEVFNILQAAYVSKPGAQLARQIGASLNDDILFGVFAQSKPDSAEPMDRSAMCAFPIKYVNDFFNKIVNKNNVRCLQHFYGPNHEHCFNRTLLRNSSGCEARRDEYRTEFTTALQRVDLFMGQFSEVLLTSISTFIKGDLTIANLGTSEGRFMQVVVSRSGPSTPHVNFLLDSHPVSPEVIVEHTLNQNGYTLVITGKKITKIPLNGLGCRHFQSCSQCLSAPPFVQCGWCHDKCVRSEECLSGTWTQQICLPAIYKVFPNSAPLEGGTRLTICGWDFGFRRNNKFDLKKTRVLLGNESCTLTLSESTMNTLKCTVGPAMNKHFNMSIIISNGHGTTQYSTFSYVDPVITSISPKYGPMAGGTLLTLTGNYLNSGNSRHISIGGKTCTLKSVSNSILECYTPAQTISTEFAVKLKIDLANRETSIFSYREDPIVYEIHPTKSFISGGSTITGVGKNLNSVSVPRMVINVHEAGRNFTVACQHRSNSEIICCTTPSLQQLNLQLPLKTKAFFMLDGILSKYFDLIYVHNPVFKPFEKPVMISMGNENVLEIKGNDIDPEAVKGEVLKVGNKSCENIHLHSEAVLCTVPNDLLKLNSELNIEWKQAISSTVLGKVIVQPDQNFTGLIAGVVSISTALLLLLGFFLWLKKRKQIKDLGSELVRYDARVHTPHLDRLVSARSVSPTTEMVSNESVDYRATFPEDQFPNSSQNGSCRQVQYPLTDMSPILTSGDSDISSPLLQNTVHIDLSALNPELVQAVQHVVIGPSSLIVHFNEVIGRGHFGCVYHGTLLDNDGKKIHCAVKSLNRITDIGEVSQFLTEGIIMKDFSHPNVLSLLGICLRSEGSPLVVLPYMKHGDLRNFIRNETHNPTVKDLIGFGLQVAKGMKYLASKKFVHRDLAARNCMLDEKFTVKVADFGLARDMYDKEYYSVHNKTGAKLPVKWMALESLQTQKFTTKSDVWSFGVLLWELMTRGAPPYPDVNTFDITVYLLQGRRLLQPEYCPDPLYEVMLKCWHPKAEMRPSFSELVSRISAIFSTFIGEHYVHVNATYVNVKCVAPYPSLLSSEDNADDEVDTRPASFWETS
T2 sequence (P08581 25-1390): as above

As to `COc1cc2c(Oc3ccc(NC(=S)NC(=O)Cc4ccc(F)cc4)cc3F)ccnc2cc1OCC(O)CN1CCOCC1` (centres unmarked) [Example 313, 1-{3-Fluoro-4-[7-(2-hydroxy-3-morpholin-4-yl-propoxy)-6-methoxy-quinolin-4-yloxy]-phenyl}-3-[2-(4-fluorophenyl)-acetyl]-thiourea], the pIC50 in assay [1] is 7.68. The TGIR stood at 34% in assay [2] (12.5 × 1 mg/kg × number of times), 45% in assay [2] (25 × 1 mg/kg × number of times), 48% in assay [2] (50 × 1 mg/kg × number of times) and 28% in assay [3].

As to `COc1cc2nccc(Oc3ccc(NC(=S)NC(=O)Cc4ccc(F)cc4)cc3F)c2cc1OC` [Example 2, N-[4-(6,7-dimethoxyquinolin-4-yloxy)-3-fluoro-phenyl]-N′-[2-(4-fluorophenyl)acetyl]thiourea], the results for the pIC50 in assay [4] and in assay [1] were 7.93 and 7.74, respectively. In addition, the “TGIR (tumor growth inhibition rate)” value in assay [5] (dose 10 mg/kg/time) is 31%; in assay [5] (dose 30 mg/kg/time) it was 65%. Further, the TGIR is recorded as 38% in assay [6] (10 mg/kg/time); 61% in assay [6] (30 mg/kg/time); 54% in assay [2] (30 × 2 mg/kg × number of times); 75% in assay [7]; 27% in assay [8].

These data come from US8324245B2, “Quinoline derivative and quinazoline derivative inhibiting self-phosphorylation of hepatocytus proliferator receptor, and medicinal composition containing the same” (Kyowa Hakko Kirin Co., Ltd., priority 2001, dated 2012).
